Results: US20240252454A1, “COMPOSITION COMPRISING AN INHIBITOR OF MITOCHONDRIAL TRANSCRIPTION” (LEAD DISCOVERY CENTER GMBH, priority 2021, published 2024)

Legend:
Experiment in all cases: SRB assay, IMT combined with inhibitor
Format in all cases: cell-based
[1] = system: A549; conditions: A549 (lung); concentration series of the labelled inhibitor + fixed concentration of IMT (3S)-1-[(2R)-2-[4-(2-chloro-4-fluoro-phenyl)-2-oxo-chromen-7-yl]oxypropanoyl]piperidine-3-carboxylic acid (Table 3: 40 nM, 120 h); negative=synergistic, positive=antagonistic
Protocol: (§1) Solforhodamine B assay is carried out as described in Voigt W. (2005) Sulforhodamine B Assay and Chemosensitivity. (Methods in Molecular Medicine™, vol 110. Humana Press. https://doi.org/10.1385/1-59259-869-2:039).
(§2) The determination of changes in cellular biomass was based on the Solforhodamine B assay format, carried out as described in Voigt W. (2005) Sulforhodamine B Assay and Chemosensitivity. (Methods in Molecular Medicine™, vol 110. Humana Press. https://doi.org/10.1385/1-59259-869-2:039).
(§3) All in vitro cell culture experiments were carried out under near physiological glucose concentrations (5 mM) in at least two independent replicates.
(§4) First, 30 different cell lines from 14 different tissue types were tested in the SRB assay format. The cells were examined individually for changes in growth over a period of 120 hours with dilution series of both inhibitors. Untreated cells were used as a negative control group. Subsequently, a dilution series of the respective MAPK signalling pathway SOCs was treated in combination with a fixed concentration of 40 nM (3S)-1-[(2R)-2-[4-(2-chloro-4-fluoro-phenyl)-2-oxo-chromen-7-yl]oxypropanoyl]piperidine-3-carboxylic acid.

[2] = system: HEPG2; conditions: HEPG2 (liver); concentration series of the labelled inhibitor + fixed concentration of IMT (3S)-1-[(2R)-2-[4-(2-chloro-4-fluoro-phenyl)-2-oxo-chromen-7-yl]oxypropanoyl]piperidine-3-carboxylic acid (Table 3: 40 nM, 120 h); negative=synergistic, positive=antagonistic
Protocol: as §1, §2, §3, §4

[3] = system: HT29; conditions: HT29 (colon); concentration series of the labelled inhibitor + fixed concentration of IMT (3S)-1-[(2R)-2-[4-(2-chloro-4-fluoro-phenyl)-2-oxo-chromen-7-yl]oxypropanoyl]piperidine-3-carboxylic acid (Table 3: 40 nM, 120 h); negative=synergistic, positive=antagonistic
Protocol: as §1, §2, §3, §4

[4] = system: IMR90; conditions: IMR90 (lung); concentration series of the labelled inhibitor + fixed concentration of IMT (3S)-1-[(2R)-2-[4-(2-chloro-4-fluoro-phenyl)-2-oxo-chromen-7-yl]oxypropanoyl]piperidine-3-carboxylic acid (Table 3: 40 nM, 120 h); negative=synergistic, positive=antagonistic
Protocol: as §1, §2, §3, §4

[5] = system: JAR; conditions: JAR (placenta); concentration series of the labelled inhibitor + fixed concentration of IMT (3S)-1-[(2R)-2-[4-(2-chloro-4-fluoro-phenyl)-2-oxo-chromen-7-yl]oxypropanoyl]piperidine-3-carboxylic acid (Table 3: 40 nM, 120 h); negative=synergistic, positive=antagonistic
Protocol: as §1, §2, §3, §4

[6] = system: KASUMI-1; conditions: KASUMI-1 (hematological); concentration series of the labelled inhibitor + fixed concentration of IMT (3S)-1-[(2R)-2-[4-(2-chloro-4-fluoro-phenyl)-2-oxo-chromen-7-yl]oxypropanoyl]piperidine-3-carboxylic acid (Table 3: 40 nM, 120 h); negative=synergistic, positive=antagonistic
Protocol: as §1, §2, §3, §4

[7] = system: LOVO; conditions: LOVO (colon); concentration series of the labelled inhibitor + fixed concentration of IMT (3S)-1-[(2R)-2-[4-(2-chloro-4-fluoro-phenyl)-2-oxo-chromen-7-yl]oxypropanoyl]piperidine-3-carboxylic acid (Table 3: 40 nM, 120 h); negative=synergistic, positive=antagonistic
Protocol: as §1, §2, §3, §4

[8] = system: MIAPACA2; conditions: MIAPACA2 (pancreas); concentration series of the labelled inhibitor + fixed concentration of IMT (3S)-1-[(2R)-2-[4-(2-chloro-4-fluoro-phenyl)-2-oxo-chromen-7-yl]oxypropanoyl]piperidine-3-carboxylic acid (Table 3: 40 nM, 120 h); negative=synergistic, positive=antagonistic
Protocol: as §1, §2, §3, §4

[9] = system: MV4-11; conditions: MV4-11 (hematological); concentration series of the labelled inhibitor + fixed concentration of IMT (3S)-1-[(2R)-2-[4-(2-chloro-4-fluoro-phenyl)-2-oxo-chromen-7-yl]oxypropanoyl]piperidine-3-carboxylic acid (Table 3: 40 nM, 120 h); negative=synergistic, positive=antagonistic
Protocol: as §1, §2, §3, §4

[10] = system: NCIH460; conditions: NCIH460 (lung); concentration series of the labelled inhibitor + fixed concentration of IMT (3S)-1-[(2R)-2-[4-(2-chloro-4-fluoro-phenyl)-2-oxo-chromen-7-yl]oxypropanoyl]piperidine-3-carboxylic acid (Table 3: 40 nM, 120 h); negative=synergistic, positive=antagonistic
Protocol: as §1, §2, §3, §4

[11] = system: PANC1; conditions: PANC1 (pancreas); concentration series of the labelled inhibitor + fixed concentration of IMT (3S)-1-[(2R)-2-[4-(2-chloro-4-fluoro-phenyl)-2-oxo-chromen-7-yl]oxypropanoyl]piperidine-3-carboxylic acid (Table 3: 40 nM, 120 h); negative=synergistic, positive=antagonistic
Protocol: as §1, §2, §3, §4

[12] = system: SKMEL28; conditions: SKMEL28 (skin); concentration series of the labelled inhibitor + fixed concentration of IMT (3S)-1-[(2R)-2-[4-(2-chloro-4-fluoro-phenyl)-2-oxo-chromen-7-yl]oxypropanoyl]piperidine-3-carboxylic acid (Table 3: 40 nM, 120 h); negative=synergistic, positive=antagonistic
Protocol: as §1, §2, §3, §4

[13] = system: SKOV3; conditions: SKOV3 (ovary); concentration series of the labelled inhibitor + fixed concentration of IMT (3S)-1-[(2R)-2-[4-(2-chloro-4-fluoro-phenyl)-2-oxo-chromen-7-yl]oxypropanoyl]piperidine-3-carboxylic acid (Table 3: 40 nM, 120 h); negative=synergistic, positive=antagonistic
Protocol: as §1, §2, §3, §4

[14] = system: SW620; conditions: SW620 (colon); concentration series of the labelled inhibitor + fixed concentration of IMT (3S)-1-[(2R)-2-[4-(2-chloro-4-fluoro-phenyl)-2-oxo-chromen-7-yl]oxypropanoyl]piperidine-3-carboxylic acid (Table 3: 40 nM, 120 h); negative=synergistic, positive=antagonistic
Protocol: as §1, §2, §3, §4

[15] = system: U2OS; conditions: U2OS (bone); concentration series of the labelled inhibitor + fixed concentration of IMT (3S)-1-[(2R)-2-[4-(2-chloro-4-fluoro-phenyl)-2-oxo-chromen-7-yl]oxypropanoyl]piperidine-3-carboxylic acid (Table 3: 40 nM, 120 h); negative=synergistic, positive=antagonistic
Protocol: as §1, §2, §3, §4

Row | Structure (SMILES) | difference between the calculated combinatorial index (BLISS) and the observed combinatorial effect [1] | difference between the calculated combinatorial index (BLISS) and the observed combinatorial effect [2] | difference between the calculated combinatorial index (BLISS) and the observed combinatorial effect [3] | difference between the calculated combinatorial index (BLISS) and the observed combinatorial effect [4] | difference between the calculated combinatorial index (BLISS) and the observed combinatorial effect [5] | difference between the calculated combinatorial index (BLISS) and the observed combinatorial effect [6] | difference between the calculated combinatorial index (BLISS) and the observed combinatorial effect [7] | difference between the calculated combinatorial index (BLISS) and the observed combinatorial effect [8] | difference between the calculated combinatorial index (BLISS) and the observed combinatorial effect [9] | difference between the calculated combinatorial index (BLISS) and the observed combinatorial effect [10] | difference between the calculated combinatorial index (BLISS) and the observed combinatorial effect [11] | difference between the calculated combinatorial index (BLISS) and the observed combinatorial effect [12] | difference between the calculated combinatorial index (BLISS) and the observed combinatorial effect [13] | difference between the calculated combinatorial index (BLISS) and the observed combinatorial effect [14] | difference between the calculated combinatorial index (BLISS) and the observed combinatorial effect [15]
1 | COc1c(OCCCN2CCOCC2)ccc2c1N=C(NC(=O)c1cnc(N)nc1)N1CCN=C21 [BAY 80-6946, 2-Amino-N-{7-methoxy-8-[3-(4-morpholinyl)propoxy]-2,3-dihydroimidazo[1,2-c]quinazolin-5-yl}-5-pyrimidinecarboxamide] | 0.0159 | −0.0273 | 0.0613 | 0.0281 | 0.0381 | 0.0015 | −0.0178 | 0.0574 | 0.0337 | −0.0473 | 0.0174 | −0.0068 | 0.0112 | −0.0651 | 0.0017
2 | C[C@H](Nc1ncnc2nc[nH]c12)c1cc2cccc(Cl)c2c(=O)n1-c1ccccc1 [Duvelisib] | −0.0092 | −0.0318 | 0.0216 | 0.0253 | 0.0624 | −0.0237 | −0.0219 | −0.0183 | 0.0611 | −0.0651 | −0.0096 | −0.0412 | 0.0398 | −0.0623 | −0.0126
3 | Cn1cnc2c(F)c(Nc3ccc(Br)cc3Cl)c(C(=O)NOCCO)cc21 [Selumetinib] | −0.0519 | 0.0032 | 0.0236 | −0.0291 | 0.0045 | −0.0114 | −0.0877 | −0.0734 | 0.0150 | −0.0276 | 0.0867 | 0.0096 | 0.0622 | −0.0547 | −0.1010
4 | O=C(c1ccc(F)c(F)c1Nc1ccc(I)cc1F)N1CC(O)([C@@H]2CCCCN2)C1 [Cobimetinib] | −0.0490 | −0.0133 | 0.0382 | −0.0073 | 0.0139 | −0.0232 | −0.0754 | −0.0673 | 0.0051 | −0.0338 | 0.0747 | −0.0040 | 0.0499 | −0.0609 | −0.0663
